# Where two headings read alike, the source gives them in different places.
# Columns and labels:
# ENL [1] = target: T1, ENL (Homo sapiens, UniProt Q03111); assay: ENL degradation in MV4;11 cells (Western blot); format: cell-based; details: for DC50: read-out: DC50 (concentration at which a protein is reduced by 50%), ENL
# T1 construct: tested whether the compounds degrade ENL and AF9 in MV4;11 leukemia cells; endogenous in cells; host or cells: MV4;11; Molm-13
# T1 sequence (Q03111 1-559): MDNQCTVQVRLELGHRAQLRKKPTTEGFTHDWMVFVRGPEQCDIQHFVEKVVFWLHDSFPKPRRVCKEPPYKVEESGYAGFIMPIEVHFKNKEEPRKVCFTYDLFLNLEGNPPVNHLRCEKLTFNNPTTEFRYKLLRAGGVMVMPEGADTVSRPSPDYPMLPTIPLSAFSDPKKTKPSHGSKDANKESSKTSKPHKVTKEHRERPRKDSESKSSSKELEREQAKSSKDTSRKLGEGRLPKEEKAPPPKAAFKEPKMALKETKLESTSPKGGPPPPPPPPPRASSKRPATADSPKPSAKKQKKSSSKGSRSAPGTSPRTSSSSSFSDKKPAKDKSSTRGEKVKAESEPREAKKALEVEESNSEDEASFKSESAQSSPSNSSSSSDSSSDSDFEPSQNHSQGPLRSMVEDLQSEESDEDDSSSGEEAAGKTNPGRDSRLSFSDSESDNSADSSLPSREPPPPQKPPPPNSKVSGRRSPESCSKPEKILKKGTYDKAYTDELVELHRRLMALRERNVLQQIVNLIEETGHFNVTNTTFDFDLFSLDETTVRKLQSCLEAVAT
# Protocol: Next, Applicant tested whether the compounds degrade ENL and AF9 in MV4;11 leukemia cells with the .MLL1-AF4 oncogene. Upon compound treatment for 24 h, the cells were washed, lysed, and the lysates subjected to SDS-PAGE (sodium dodecyl sulphate-polyacrylamide gel electrophoresis) followed by detection with Western blot.
# RPMI-8226 cells [2] = assay: Anti-proliferative activity, RPMI-8226 cells; format: cell-based
# Molm-13 cells [3] = details: Molm13 cells, footnote b: reported in Li, et al. J Hematol Oncol, 2022; read-out: Anti-proliferative activity EC50, Molm13; cited from earlier work
# MV4;11 cells [4] = details: footnote b: reported in Li, et al. J Hematol Oncol, 2022, read-out: Anti-proliferative activity EC50, MV4; cited from earlier work
# Hela cell [5] = details: Hela cells, footnote b: reported in Li, et al. J Hematol Oncol, 2022, read-out: Anti-proliferative activity EC50, Hela, cited from earlier work
# [6] = target: T2, ENL YEATS-H3K27ac interaction (Homo sapiens, UniProt Q03111); assay: ALPHA assay, inhibition of ENL YEATS-H3K27ac interaction; details: read-out: IC50, inhibition of ENL YEATS-H3K27ac interaction
# T2 sequence (Q03111 1-138 limits assumed): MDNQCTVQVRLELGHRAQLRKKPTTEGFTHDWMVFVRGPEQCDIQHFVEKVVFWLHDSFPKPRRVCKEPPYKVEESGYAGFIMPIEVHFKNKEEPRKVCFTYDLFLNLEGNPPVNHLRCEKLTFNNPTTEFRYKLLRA
# Hela cell [7] = assay: Anti-proliferative activity, Hela cells; format: cell-based; details: Hela cells, read-out: Anti-proliferative activity EC50, Hela
# [8] = test system: blood and solid tumor cells; assay: Anti-proliferative activity, panel of blood and solid tumor cells; format: cell-based
# Molm-13 cells [9] = assay: Anti-proliferative activity, Molm-13 cells; format: cell-based
# RPMI-8226 cells [10] = details: footnote b: reported in Li, et al. J Hematol Oncol, 2022, read-out: Anti-proliferative activity EC50, RPMI-8226; cited from earlier work
# MV4;11 cells [11] = assay: Anti-proliferative activity, MV4;11 cells; format: cell-based
# ENL [12] = target: T1, ENL; assay: Rescue of compound 1-mediated ENL degradation in MV4;11 cells; format: cell-based; details: 2 h pre-treatment then co-treatment with compound 1 (500 nM) for 24 h
# ENL [13] = target: T1, ENL; assay: Nuclear and cytoplasmic ENL levels in MV4;11 cells, 4 days (Western blot); format: cell-based
# Excerpt: Upon treatment of MV4;11 cells with these compounds for 4 days, cytoplasmic and nuclear proteins were separated and subjected to SDS-PAGE/Western blot.
# [14] = Molm13 cells, read-out: Anti-proliferative activity EC50, Molm13
# [15] = MV4, 11 cells, read-out: Anti-proliferative activity EC50, MV4, 11
smiles,measurement,setting,value
C[C@H]1CCCN1Cc1nc2cc(NC(=O)c3ccc4c(cnn4CCCCCCNc4cccc5c4C(=O)N(C4CCC(=O)NC4=O)C5=O)c3)ccc2[nH]1 (stereo partly drawn) [Compound 2],"Dmax (maximal degradation), ENL",ENL [1]; 24 h treatment,~68%
same,DC50,ENL [1]; 24 h treatment,~0.05 µM
same,EC50,RPMI-8226 cells [2],6 ± 0.91 µM
same,EC50,Molm-13 cells [3],0.49 µM
same,EC50,MV4;11 cells [4],1.6 µM
same,EC50,Hela cell [5],> 50 µM
same,IC50,[6],0.1 µM
C[C@H]1CCCN1Cc1nc2cc(NC(=O)c3ccc4c(cnn4CCCCNc4cccc5c4C(=O)N(C4CCC(=O)NC4=O)C5=O)c3)ccc2[nH]1 (stereo partly drawn) [Compound 3],"Dmax (maximal degradation), ENL",ENL [1]; 24 h treatment,89%
same,concentration at which ENL is almost depleted,ENL [1]; 24 h treatment,~500 nM
same,DC50,ENL [1]; 24 h treatment,0.072 µM
same,EC50,RPMI-8226 cells [2],19 ± 3.8 µM
same,EC50,Hela cell [7]; footnote letter missing,> 50 µM
same,EC50,Molm-13 cells [3],2.1 µM
same,EC50,MV4;11 cells [4],1.2 µM
same,IC50,[6],0.61 µM
C[C@H]1CCCN1Cc1nc2cc(NC(=O)c3ccc4c(cnn4CCCCNC(=O)CC45CC6CC(CC(C6)C4)C5)c3)ccc2[nH]1 [Compound 4],ENL reduction,"ENL [1]; 24 h, even at 5 μM",did not reduce ENL
same,time to non-selective killing of cancerous cells,[8],≤ 3 days
same,EC50,"[8]; blood and solid tumor cells, range over cell lines, read-out: EC50, proliferation",1 to 3.8 µM
"C[C@H]1CCCN1Cc1nc2cc(NC(=O)c3ccc4c(cnn4C)c3)ccc2[nH]1 [SGC-iMLLT, reference compound]",activity against proliferation,Molm-13 cells [9]; Molm-13 cells,weak activity
same,EC50,Molm-13 cells [3],17 µM
same,EC50,MV4;11 cells [4],> 50 µM
same,EC50,RPMI-8226 cells [10],> 50 µM
same,EC50,Hela cell [5],> 50 µM
C[C@H]1CCCN1Cc1nc2cc(NC(=O)c3ccc4c(cnn4CCCCCCCCNC(=O)CC45CC6CC(CC(C6)C4)C5)c3)ccc2[nH]1 [SYC-2521],EC50,Molm-13 cells [9]; [14],1 ± 0.2 µM
same,EC50,RPMI-8226 cells [2],2 ± 0.3 µM
same,EC50,Hela cell [7]; 3 days incubation,2.5 ± 1.4 µM
C[C@H]1CCCN1Cc1nc2cc(NC(=O)c3ccc4c(cnn4CCCCCCNC(=O)CC45CC6CC(CC(C6)C4)C5)c3)ccc2[nH]1 [SYC-2522],EC50,Molm-13 cells [9]; [14],1 ± 0.05 µM
same,EC50,RPMI-8226 cells [2],0.68 ± 0.2 µM
same,EC50,Hela cell [7]; 3 days incubation,3.2 ± 0.7 µM
C[C@H]1CCCN1Cc1nc2cc(NC(=O)c3ccc4c(cnn4CCCCNC(=O)CC45CC6CC(CC(C6)C4)C5)c3)ccc2[nH]1 [SYC-2523],EC50,Molm-13 cells [9]; [14],0.98 ± 0.04 µM
same,EC50,RPMI-8226 cells [2]; 3 days incubation,1.4 ± 0.5 µM
same,EC50,Hela cell [5]; 3 days incubation,3.8 ± 1.2 µM
C[C@H]1CCCN1Cc1nc2cc(NC(=O)c3ccc4c(cnn4CCCNc4cccc5c4C(=O)N(C4CCC(=O)NC4=O)C5=O)c3)ccc2[nH]1 (stereo partly drawn) [SYC-2552],DC50,ENL [1]; 24 h treatment,0.021 µM
same,EC50,Molm-13 cells [9]; [14],2.5 ± 1.1 µM
C[C@H]1CCCN1Cc1nc2cc(NC(=O)c3ccc4c(cnn4CCCCCNc4cccc5c4C(=O)N(C4CCC(=O)NC4=O)C5=O)c3)ccc2[nH]1 (stereo partly drawn) [SYC-2553],DC50,ENL [1]; 24 h treatment,0.0042 µM
same,EC50,Molm-13 cells [9]; [14],3.4 ± 0.4 µM
same,EC50,MV4;11 cells [11]; [15],8.3 ± 1.6 µM
same,EC50,RPMI-8226 cells [2],7.2 ± 0.35 µM
C[C@H]1CCCN1Cc1nc2cc(NC(=O)c3ccc4c(cnn4CCCCCCCNc4cccc5c4C(=O)N(C4CCC(=O)NC4=O)C5=O)c3)ccc2[nH]1 (stereo partly drawn) [SYC-2554],EC50,Molm-13 cells [9]; [14],4.4 ± 0.5 µM
same,EC50,MV4;11 cells [11]; [15],3.7 ± 1.6 µM
same,EC50,RPMI-8226 cells [2],6.4 ± 0.65 µM
C[C@H]1CCCN1Cc1nc2cc(NC(=O)c3ccc4c(cnn4CCCCCCCCCNc4cccc5c4C(=O)N(C4CCC(=O)NC4=O)C5=O)c3)ccc2[nH]1 (stereo partly drawn) [SYC-2555],ENL reduction,ENL [1]; FIGS. 9A-9E,did not reduce ENL
same,EC50,Molm-13 cells [9]; [14],4.5 ± 0.6 µM
same,EC50,MV4;11 cells [11]; [15],8.3 ± 0.8 µM
same,EC50,RPMI-8226 cells [2],7.9 ± 0.07 µM
C[C@H]1CCCN1Cc1nc2cc(NC(=O)c3ccc4c(cnn4CCCCCCCCCCNc4cccc5c4C(=O)N(C4CCC(=O)NC4=O)C5=O)c3)ccc2[nH]1 (stereo partly drawn) [SYC-2556],ENL reduction,ENL [1]; FIGS. 9A-9E,did not reduce ENL
same,EC50,Molm-13 cells [9]; [14],1.1 ± 0.3 µM
same,EC50,MV4;11 cells [11]; [15],8.4 ± 1.2 µM
same,EC50,RPMI-8226 cells [2],7.5 ± 0.19 µM
C[C@H]1CCCN1Cc1nc2cc(NC(=O)c3ccc4c(cnn4CCCCCCCCCCCNc4cccc5c4C(=O)N(C4CCC(=O)NC4=O)C5=O)c3)ccc2[nH]1 (stereo partly drawn) [SYC-2557],ENL reduction,ENL [1]; FIGS. 9A-9E,did not reduce ENL
same,EC50,Molm-13 cells [9]; [14],0.82 ± 0.2 µM
same,EC50,MV4;11 cells [11]; [15],0.94 ± 0.06 µM
same,EC50,RPMI-8226 cells [2]; 6 days incubation,5.5 µM
C[C@H]1CCCN1Cc1nc2cc(NC(=O)c3ccc4c(cnn4CCCNC(=O)CC45CC6CC(CC(C6)C4)C5)c3)ccc2[nH]1 [SYC-2558],EC50,Hela cell [7]; 3 days incubation,2.5 ± 1 µM
"O=C1CCC(N2C(=O)c3ccccc3C2=O)C(=O)N1 (stereo not drawn) [Thalidomide, thalidomide, reference compound]",effect on compound 1-mediated ENL degradation,ENL [12],dose-dependently inhibit compound 1-mediated ENL degradation
same,ENL level in the nucleus,ENL [13],did not reduce
same,EC50,"Molm-13 cells [9]; Homo sapiens, 168 h, Molm-13 cells, 7-day incubation, read-out: EC50, proliferation",> 50 µM
same,EC50,"MV4;11 cells [11]; Homo sapiens, 168 h, MV4;11 cells, 7-day incubation, read-out: EC50, proliferation",> 50 µM
same,EC50,Molm-13 cells [3],> 50 µM
same,EC50,MV4;11 cells [4],> 50 µM
same,EC50,RPMI-8226 cells [10],> 50 µM
same,EC50,Hela cell [5],> 50 µM
CC(C)C[C@H](NC(=O)[C@H](Cc1ccccc1)NC(=O)c1cnccn1)B(O)O [bortezomib],effect on compound 1-mediated ENL degradation,ENL [12],dose-dependently inhibit compound 1-mediated ENL degradation
